According to article PMC9161616, “A first-in-human phase 1/2 study of FGF401 and combination of FGF401 with spartalizumab in patients with hepatocellular carcinoma or biomarker-selected solid tumors” (Journal of Experimental & Clinical Cancer Research : CR, 2022):
Where two headings read alike, the source gives them in different places.

Tests used:
[1] = test system: patients with HCC; set-up: method as in PMID 31575541; details: cited from earlier work
[2] = test system: patients with HCC and intrahepatic cholangiocarcinoma; set-up: method as in doi:10.1200/JCO.2019.37.15_suppl.4095, doi:10.1200/JCO.2021.39.15_suppl.4090; details: cited from earlier work
[3] = Pharmacokinetics of spartalizumab in combination arm; format: in vivo, human; details: for AUC0-504h / AUClast / Cmax / Tmax: Cycle 1 day 1; for AUC0-504h / AUClast / Cmax: geometric mean (CV%); for Tmax: median [min, max]
Protocol: (§1) Pharmacokinetic endpoints included plasma concentrations and PK parameters of FGF401 and spartalizumab. Pharmacokinetic parameters were determined with noncompartmental method(s) using Phoenix WinNonlin version 6.4 or above (Pharsight Corporation, Mountain View, Califormia, USA). Immunogenicity of spartalizumab was assessed through presence and/or concentration of anti-drug (spartalizumab) antibodies (ADA). Food effect on FGF401 exposure was evaluated through plasma concentration of FGF401 and relevant PK parameters when dosing under fed condition. Safety of the food effect was assessed through incidence and severity of AEs and serious AEs (SAEs), including changes in laboratory values, vital signs, and ECGs when dosing under fed condition.
The PK analyses and summary statistics were based on pharmacokinetic analysis set. Individual as well as mean concentration-time profiles were constructed using concentration data for spartalizumab and FGF401. Descriptive statistics for PK parameters included mean, standard deviation, coefficient of variation (CV%) mean, geometric mean, median, minimum, and maximum, with only the latter 3 for time to reach maximum concentration (Tmax) and additional 90% CI for accumulation ratio (Racc). Zero concentrations were not included in the geometric mean calculations. Missing concentrations or PK parameter values were not imputed.

[4] = Immunogenicity of spartalizumab (anti-drug antibodies); format: in vivo, human
Protocol: as §1

[5] = HCC patients with > 2 prior lines of therapy, qd schedule
[6] = spartalizumab 300 mg with FGF401 80 mg, n=6
[7] = spartalizumab 300 mg with FGF401 120 mg, n=6

Question: Which ORR ([1]; FGF19-negative patients) does the source give for C=CC(=O)N[C@H]1CCOC[C@H]1Nc1ncc2cc(-c3c(Cl)c(OC)cc(OC)c3Cl)ccc2n1 [BLU-554, fisogatinib] here?
Answer: 0%

Question: What about the “median duration of response” value ([1]; FGF19-positive patients, 95% CI: 3.7-not reached) of the same compound?
Answer: 5.3 months

Question: And the ORR ([1]; FGF19-positive patients)?
Answer: 17%

Question: And the “Treatment discontinuation due to AE” value [1]?
Answer: 12%

Question: And the “Grade ≥ 3 TRAEs” value ([1]; most common transaminase elevation)?
Answer: 43%

Question: And the “treatment related AE: diarrhea” value ([1]; qd)?
Answer: 74%

Question: What about the “treatment related AE: nausea” value ([1]; qd) of the same compound?
Answer: 42%

Question: And the “treatment related AE: vomiting” value ([1]; qd)?
Answer: 35%

Question: For C=CC(=O)Nc1cc(N2CCN(CC)CC2)ccc1Nc1cc(N(C)C(=O)Nc2c(Cl)c(OC)cc(OC)c2Cl)ncn1 [H3B-6527], which “drug discontinuation due to AEs” value ([2]; HCC and intrahepatic cholangiocarcinoma, qd dosing) is on record?
Answer: 8.3%

Question: And the “Grade 3 TEAE” value ([2]; HCC and intrahepatic cholangiocarcinoma)?
Answer: 12.5%

Question: What about the OS [2, 5] of the same compound?
Answer: 10.6 months

Question: What about the PFS [2, 5] of the same compound?
Answer: 4.1 months

Question: What about the ORR ([2]; all PR, HCC patients with > 2 prior lines of therapy, qd schedule) of the same compound?
Answer: 16.7%

Question: What about the clinical benefit rate ([2]; responders + durable SD > 17 weeks, HCC, qd schedule) of the same compound?
Answer: 45.8%

Question: For “spartalizumab: humanized immunoglobulin G4κ monoclonal antibody that binds PD-1 and blocks its interaction with PD-L1/PD-L2”, which AUC0-504h ([3]; spartalizumab 300 mg with FGF401 80 mg, n=3) is on record?
Answer: 760 (1.9) day*µg/mL

Question: What about the AUClast [3, 6] of the same compound?
Answer: 795 (34.5) day*µg/mL

Question: What about the Cmax [3, 6] of the same compound?
Answer: 74.7 µg/mL

Question: What about the Tmax [3, 6] of the same compound?
Answer: 1.58 [1.5-161] h

Question: And the AUC0-504h [3, 7]?
Answer: 967 (13.9) day*µg/mL

Question: And the AUClast [3, 7]?
Answer: 978 (15.8) day*µg/mL

Question: What about the Cmax [3, 7] of the same compound?
Answer: 87.7 µg/mL

Question: And the Tmax [3, 7]?
Answer: 1.5 [1.43-1.5] h

Question: And the “spartalizumab exposures in combination versus similar studies with 300 mg q3w” value ([3]; compared with refs 25, 30)?
Answer: might be comparable

Question: And the “geo-mean AUClast” value ([3]; spartalizumab in combination with 80 mg FGF401)?
Answer: 795 µg·days/mL

Question: And the “geo-mean AUClast” value ([3]; spartalizumab in combination with 120 mg FGF401)?
Answer: 978 µg·days/mL

Question: And the “patients positive for treatment-induced ADA for spartalizumab” value ([4]; One of 12 patients, C2D1 and C3D1 predose)?
Answer: 8.3%

Question: What about the ADA titers ([4]; one ADA-positive patient) of the same compound?
Answer: low to moderate

Question: And the “influence of ADA on PK profiles” value ([4]; one ADA-positive patient)?
Answer: did not appear to influence the PK profiles
